Laboratory results: ChEMBL document CHEMBL3621068, “Synthesis and biological evaluation of a new class of quinazolinoneazoles as potential antimicrobial agents and their interactions with calf thymus DNA and human serum albumin” (Medchemcomm, 2015)
Values after ≈ are worked out from the molar mass of the structure shown.

Legend:
Type in all cases: functional
[1] = test system: Staphylococcus aureus; assay: Antibacterial activity against Staphylococcus aureus ATCC 25923 after 24 hrs by micro broth dilution assay; conditions: ATCC 25923, 24 h
[2] = test system: Staphylococcus aureus; assay: Antibacterial activity against methicillin-resistant Staphylococcus aureus N315 after 24 hrs by micro broth dilution assay; conditions: N315, 24 h
[3] = test system: Saccharomyces cerevisiae; assay: Antifungal activity against Beer yeast ATCC 9763 after 24 hrs by micro broth dilution assay; conditions: ATCC 9763, 24 h
[4] = test system: Bacillus spizizenii; assay: Antibacterial activity against Bacillus subtilis ATCC 6633 after 24 hrs by micro broth dilution assay; conditions: ATCC 6633, 24 h
[5] = test system: Aspergillus flavus; assay: Antifungal activity against Aspergillus flavus ATCC 204304 after 24 hrs by micro broth dilution assay; conditions: ATCC 204304, 24 h
[6] = test system: Candida albicans; assay: Antifungal activity against Candida albicans ATCC 10231 after 24 hrs by micro broth dilution assay; conditions: ATCC 10231, 24 h
[7] = Antibacterial activity against Eberthella typhosa ATCC 14028 after 24 hrs by micro broth dilution assay; conditions: ATCC 14028, 24 h
[8] = test system: Escherichia coli; assay: Antibacterial activity against Escherichia coli DH52 after 24 hrs by micro broth dilution assay; conditions: DH52, 24 h
[9] = test system: Candida; assay: Antifungal activity against Candida mycoderma ATCC 9888 after 24 hrs by micro broth dilution assay; conditions: ATCC 9888, 24 h
[10] = test system: Micrococcus luteus; assay: Antibacterial activity against Micrococcus luteus ATCC 4698 after 24 hrs by micro broth dilution assay; conditions: ATCC 4698, 24 h
[11] = test system: Bacillus sp.; assay: Antibacterial activity against Bacillus proteus ATCC 13315 after 24 hrs by micro broth dilution assay; conditions: Bacillus sp. (in: firmicutes), ATCC 13315, 24 h
[12] = test system: Cyberlindnera jadinii; assay: Antifungal activity against Candida utilis ATCC 9950 after 24 hrs by micro broth dilution assay; conditions: Williopsis jadinii, ATCC 9950, 24 h
[13] = test system: Pseudomonas aeruginosa; assay: Antibacterial activity against Pseudomonas aeruginosa ATCC 27853 a after 24 hrs by micro broth dilution assay; conditions: ATCC 27853, 24 h

O=c1c2ccc(Cl)cc2ncn1CCBr
MIC [1]: > 1780 µM
MIC [2]: 890 µM (≈ 256 µg/mL)
MIC [3]: 890 µM (≈ 256 µg/mL)
MIC [4]: 1780 µM (≈ 512 µg/mL)
MIC [5]: > 1780 µM
MIC [6]: > 1780 µM
MIC [7]: > 1780 µM
MIC [8]: 1780 µM (≈ 512 µg/mL)
MIC [9]: > 1780 µM
MIC [10]: 450 µM (≈ 129 µg/mL)
MIC [11]: 890 µM (≈ 256 µg/mL)
MIC [12]: 890 µM (≈ 256 µg/mL)
MIC [13]: > 1780 µM

O=c1c2ccc(Cl)cc2ncn1CCCCn1cnc([N+](=O)[O-])c1
MIC [1]: 370 µM (≈ 129 µg/mL)
MIC [2]: 180 µM (≈ 62.6 µg/mL)
MIC [3]: 90 µM (≈ 31.3 µg/mL)
MIC [4]: 50 µM (≈ 17.4 µg/mL)
MIC [5]: 740 µM (≈ 257 µg/mL)
MIC [6]: 90 µM (≈ 31.3 µg/mL)
MIC [7]: 370 µM (≈ 129 µg/mL)
MIC [8]: 740 µM (≈ 257 µg/mL)
MIC [9]: 740 µM (≈ 257 µg/mL)
MIC [10]: 50 µM (≈ 17.4 µg/mL)
MIC [11]: 370 µM (≈ 129 µg/mL)
MIC [12]: 370 µM (≈ 129 µg/mL)
MIC [13]: 740 µM (≈ 257 µg/mL)

Cc1ncc([N+](=O)[O-])n1CCCCCn1cnc2cc(Cl)ccc2c1=O
MIC [1]: 40 µM (≈ 15 µg/mL)
MIC [2]: 20 µM (≈ 7.52 µg/mL)
MIC [3]: 40 µM (≈ 15 µg/mL)
MIC [4]: 20 µM (≈ 7.52 µg/mL)
MIC [5]: 20 µM (≈ 7.52 µg/mL)
MIC [6]: 20 µM (≈ 7.52 µg/mL)
MIC [7]: 20 µM (≈ 7.52 µg/mL)
MIC [8]: 20 µM (≈ 7.52 µg/mL)
MIC [9]: 20 µM (≈ 7.52 µg/mL)
MIC [10]: 40 µM (≈ 15 µg/mL)
MIC [11]: 20 µM (≈ 7.52 µg/mL)
MIC [12]: 20 µM (≈ 7.52 µg/mL)
MIC [13]: > 1360 µM

O=c1c2ccc(Cl)cc2ncn1CCCCCBr
MIC [1]: > 1550 µM
MIC [2]: 780 µM (≈ 257 µg/mL)
MIC [3]: 780 µM (≈ 257 µg/mL)
MIC [4]: 1550 µM (≈ 511 µg/mL)
MIC [5]: > 1550 µM
MIC [6]: > 1550 µM
MIC [7]: > 1550 µM
MIC [8]: 1550 µM (≈ 511 µg/mL)
MIC [9]: > 1550 µM
MIC [10]: 390 µM (≈ 129 µg/mL)
MIC [11]: 390 µM (≈ 129 µg/mL)
MIC [12]: 390 µM (≈ 129 µg/mL)
MIC [13]: > 1550 µM

O=c1c2ccc(F)cc2ncn1CCn1ccnc1
MIC [1]: > 1980 µM
MIC [2]: 990 µM (≈ 256 µg/mL)
MIC [3]: 500 µM (≈ 129 µg/mL)
MIC [4]: > 1980 µM
MIC [5]: 500 µM (≈ 129 µg/mL)
MIC [6]: 990 µM (≈ 256 µg/mL)
MIC [7]: > 1980 µM
MIC [8]: 1980 µM (≈ 511 µg/mL)
MIC [9]: > 1980 µM
MIC [10]: 500 µM (≈ 129 µg/mL)
MIC [11]: 1980 µM (≈ 511 µg/mL)
MIC [12]: 990 µM (≈ 256 µg/mL)
MIC [13]: 990 µM (≈ 256 µg/mL)

O=c1c2ccc(Cl)cc2ncn1CCCCBr
MIC [1]: > 1620 µM
MIC [2]: 810 µM (≈ 256 µg/mL)
MIC [3]: 810 µM (≈ 256 µg/mL)
MIC [4]: 1620 µM (≈ 511 µg/mL)
MIC [5]: > 1620 µM
MIC [6]: > 1620 µM
MIC [7]: > 1620 µM
MIC [8]: 810 µM (≈ 256 µg/mL)
MIC [9]: > 1620 µM
MIC [10]: 810 µM (≈ 256 µg/mL)
MIC [11]: 410 µM (≈ 129 µg/mL)
MIC [12]: 410 µM (≈ 129 µg/mL)
MIC [13]: > 1620 µM

Cc1ncc([N+](=O)[O-])n1CCCCCn1cnc2cc(F)ccc2c1=O
MIC [1]: 40 µM (≈ 14.4 µg/mL)
MIC [2]: 20 µM (≈ 7.19 µg/mL)
MIC [3]: 20 µM (≈ 7.19 µg/mL)
MIC [4]: 20 µM (≈ 7.19 µg/mL)
MIC [5]: 20 µM (≈ 7.19 µg/mL)
MIC [6]: 40 µM (≈ 14.4 µg/mL)
MIC [7]: 20 µM (≈ 7.19 µg/mL)
MIC [8]: 40 µM (≈ 14.4 µg/mL)
MIC [9]: 40 µM (≈ 14.4 µg/mL)
MIC [10]: 20 µM (≈ 7.19 µg/mL)
MIC [11]: 20 µM (≈ 7.19 µg/mL)
MIC [12]: 20 µM (≈ 7.19 µg/mL)
MIC [13]: > 1420 µM

Cc1ncc([N+](=O)[O-])n1CCCCn1cnc2cc(F)ccc2c1=O
MIC [1]: 50 µM (≈ 17.3 µg/mL)
MIC [2]: 20 µM (≈ 6.91 µg/mL)
MIC [3]: 50 µM (≈ 17.3 µg/mL)
MIC [4]: 50 µM (≈ 17.3 µg/mL)
MIC [5]: 20 µM (≈ 6.91 µg/mL)
MIC [6]: 20 µM (≈ 6.91 µg/mL)
MIC [7]: 20 µM (≈ 6.91 µg/mL)
MIC [8]: 50 µM (≈ 17.3 µg/mL)
MIC [9]: 50 µM (≈ 17.3 µg/mL)
MIC [10]: 50 µM (≈ 17.3 µg/mL)
MIC [11]: 20 µM (≈ 6.91 µg/mL)
MIC [12]: 50 µM (≈ 17.3 µg/mL)
MIC [13]: > 1480 µM

O=c1c2ccc(F)cc2ncn1CCBr
MIC [1]: > 1890 µM
MIC [2]: 940 µM (≈ 255 µg/mL)
MIC [3]: 940 µM (≈ 255 µg/mL)
MIC [4]: 1890 µM (≈ 512 µg/mL)
MIC [5]: 1890 µM (≈ 512 µg/mL)
MIC [6]: 940 µM (≈ 255 µg/mL)
MIC [7]: > 1890 µM
MIC [8]: 1890 µM (≈ 512 µg/mL)
MIC [9]: > 1890 µM
MIC [10]: 470 µM (≈ 127 µg/mL)
MIC [11]: 470 µM (≈ 127 µg/mL)
MIC [12]: 940 µM (≈ 255 µg/mL)
MIC [13]: > 1890 µM

O=c1c2ccc(Cl)cc2ncn1CCn1cncn1
MIC [1]: 930 µM (≈ 256 µg/mL)
MIC [2]: 460 µM (≈ 127 µg/mL)
MIC [3]: 460 µM (≈ 127 µg/mL)
MIC [4]: 460 µM (≈ 127 µg/mL)
MIC [5]: 930 µM (≈ 256 µg/mL)
MIC [6]: 930 µM (≈ 256 µg/mL)
MIC [7]: 930 µM (≈ 256 µg/mL)
MIC [8]: 230 µM (≈ 63.4 µg/mL)
MIC [9]: 460 µM (≈ 127 µg/mL)
MIC [10]: 30 µM (≈ 8.27 µg/mL)
MIC [11]: 930 µM (≈ 256 µg/mL)
MIC [12]: 460 µM (≈ 127 µg/mL)
MIC [13]: 30 µM (≈ 8.27 µg/mL)

O=c1c2ccc(Cl)cc2ncn1CCCCCCCCCCBr
MIC [1]: > 1280 µM
MIC [2]: 640 µM (≈ 256 µg/mL)
MIC [3]: 640 µM (≈ 256 µg/mL)
MIC [4]: 1280 µM (≈ 512 µg/mL)
MIC [5]: > 1280 µM
MIC [6]: > 1280 µM
MIC [7]: > 1280 µM
MIC [8]: 640 µM (≈ 256 µg/mL)
MIC [9]: > 1280 µM
MIC [10]: 320 µM (≈ 128 µg/mL)
MIC [11]: 320 µM (≈ 128 µg/mL)
MIC [12]: 320 µM (≈ 128 µg/mL)
MIC [13]: > 1280 µM

O=c1c2ccc(Cl)cc2ncn1CCCCCCBr
MIC [1]: > 1490 µM
MIC [2]: 740 µM (≈ 254 µg/mL)
MIC [3]: 740 µM (≈ 254 µg/mL)
MIC [4]: 1490 µM (≈ 512 µg/mL)
MIC [5]: > 1490 µM
MIC [6]: > 1490 µM
MIC [7]: > 1490 µM
MIC [8]: 1490 µM (≈ 512 µg/mL)
MIC [9]: > 1490 µM
MIC [10]: 370 µM (≈ 127 µg/mL)
MIC [11]: 740 µM (≈ 254 µg/mL)
MIC [12]: 740 µM (≈ 254 µg/mL)
MIC [13]: > 1490 µM
